According to patent US20250074946A1, “USE OF SE-DR AFFINITY PEPTIDE IN PREPARING DRUG FOR TREATING RHEUMATIC DISEASE” (HEBEI FITNESS BIOTECHNOLOGY CO., LTD., priority 2021, published 2025):
Read-outs that look alike come from different tables or passages of the source. Where a SMILES comes first, the peptide text is derived from it. Where no end group is shown, it is not given here.

How the values were obtained:
PBMC = PBMC stimulation test, IL-6 in supernatant by ELISA; format: cell-based, human; details: PBMC 1×10^6 cell/ml, peptide 10 μg/ml, 5 days of culture
Source text: The SE-DR molecule is directly related to the pathogenesis of RA. It can present RA-related autoantigens in vivo, such as type II collagen (CII), heat shock protein 60 (Hsp60), cartilage glycoprotein (HCgp-39) and so on, and further activate autoreactive T cells, leading to the occurrence of rheumatoid arthritis. An important strategy for the treatment of RA is to use competitive inhibition to block the activation of autoreactive T cells by autoantigen peptides. […] Based on the above principles, we have designed and synthesized a series of altered peptide ligands, and screened for their affinity to SE-DR and for the activation ability on the peripheral blood T cells in RA patients. The specific steps and results are shown in Example 1 and Example 2.
3 mL ficoll was added to a 15 mL centrifuge tube, and 4 mL blood sample was then applied on the surface of ficoll. The tube was centrifuged at 400 g at 18-20° C. for 30-40 min. The upper layer of plasma was aspirated with a Pasteur pipette, and the PBMC layer (approximately 2 mL) was aspirated, and added to a 14 mL centrifuge tube previously filled with at least 3 volumes (6 mL) of PBS. The mixture was gently resuspended. The tube was centrifuged at 60-100 g for 10 min at 18-20° C. After centrifugation, the supernatant was removed with a Pasteur pipette, and the resulting cell mass was resuspended in 6-8 mL PBS and centrifuged at 18-20° C. for 10 min at 60-100 g to remove the supernatant. The cells were resuspended in an appropriate amount of 1640 complete medium and diluted to 1×10^6 cell/ml after cell counting. The diluted cell suspension was added to a 96-well plate. The positive control, allosteric peptide, was added to 100 μl cell culture to a final concentration of 10 μg/ml. The mixture was replenished to 200 μL with 1640 complete medium. After 5 days of culture, the supernatant was aspirated, centrifuged at 3000 rpm for 5 minutes, and the level of IL-6 in the supernatant was detected by ELISA.

CIA rats [1] = experiment: CIA rat model: inflammation score AUC and peripheral blood T-cell subtypes (Example 3); format: in vivo; details: 0.2 mmol; for Inflammation score and area under the time curve (AUC): female Lewis CIA rats, tail vein once every other day for 15 days; for Th1 (%) / Th2 (%) / Th17 (%) / Treg (%): peripheral blood, […] after end of administration, flow cytometry
Description: Collagen-induced arthritis (CIA) model was established by intradermal injection of the emulsion formulated using type II bovine collagen (CII) together with incomplete Freund's adjuvant (IFA) into the tail head of a female Lewis rat. After the model establishment, the morphological changes of rats' four paws were examined every day. […] Except for the model group, the dosage of polypeptide was all set as 0.2 mmol. A control group was also set up, in which the drug was injected into the tail vein once every other day for […]. The area under the curve (AUC) of the inflammation score was used for the efficacy analysis from the day the rats were enrolled, once every other day, until the end of administration.

[2] = test system: immune system of healthy rats; experiment: Immune indicators of SD rats after one month of administration (Example 4); format: in vivo, rat; details: once a day for 4 weeks, end of administration
Description: SD rats were used to investigate the effects of the SE-DR affinity peptides on the immune indicators of the rats after continuous administration for one month. […] At the end of administration, analysis was conducted on the serum anti-FNS007 antibodies, different types of serum immunoglobulins, the serum complement, the peripheral blood T lymphocyte and the serum cytokines.

[3] = test system: immune system of healthy monkeys; experiment: Immune indicators of cynomolgus monkeys after one month of administration (Example 5); format: in vivo, cynomolgus monkey; details: once a day for 4 weeks, end of administration
Source text: Cynomolgus monkeys were used to investigate the effects of the SE-DR affinity peptide on the immune indicators of cynomolgus monkeys after continuous administration for one month. […] At the end of administration, the immune indicators, including the serum anti-FNS007 antibodies, the immunoglobulins of different serotypes, the serum complement, the peripheral blood T lymphocyte and the serum cytokines, were observed.

[4] = test system: CIA mice infected with chronic hepatitis B; experiment: CIA mice infected with chronic hepatitis B (Example 8); format: in vivo, mouse; details: for ALT level / Hepatitis B activation rate (Ratio of ALT > 100 U/L): at sacrifice, day 28; for Observation on the daily condition of mice: during administration; for Inflammation score and area under the time curve (AUC): peptides 50 μmol, Abatacept 100 μg, tail i.v. once every other day for 27 days
Description: Establishment of chronic hepatitis B model in mice: DBA/1 mice were injected with Raav8-1. 3 HBV (1×10^12 vg/mL) via tail vein to establish HBV chronic hepatitis B model.
DBA/1 mice infected with chronic hepatitis B were used to establish CIA model with chronic hepatitis B infection. Methods: Two days after the mice were injected with Raav8-1.3 HBV (1×10^12 vg/mL) via tail vein, the emulsion of bovine C II and CFA (containing 100 μg collagen) was intradermally injected into the tail head of the mice for immunization. After 21 days, the mice were boosted once by intraperitoneal injection of the emulsion (containing 100 μg collagen) prepared by bovine C II and IFA. Thereafter, the morphological changes of the four paws of the mice were examined every day, and the mice were randomly assigned to the treatment group at inflammation score of 1. […] Another 10 mice with latent hepatitis B infection were not subjected to model establishment and set as the control group. PBS was administrated to both the model group and the control group. The mice in each group were given the corresponding drugs by tail intravenous injection at the volume of 10 ml/kg, once every other day, for 27 consecutive days. The mice were sacrificed on day 28 after administration. The inflammation scores of the four paws of the mice in each group were evaluated during the administration. The serological indicators for virus injection and liver function of the mice were detected on the day of booster immunization (22 days after tail vein injection) and at the time of sacrifice.

[5] = test system: CIA rats with latent tuberculosis infection; details: for Observation on the daily condition of rats: during administration; for Tuberculosis recurrence rate / Inflammation score and area under the time curve (AUC) / Culture of MTB from lungs and spleens of rats at sacrifice: peptides 0.2 mmol, adalimumab 1 mg/kg; for Tuberculosis recurrence rate: 21 days; for Inflammation score and area under the time curve (AUC): tail i.v. once every other day for 21 days; for Culture of MTB from lungs and spleens of rats at sacrifice: sacrifice on day 22
CIA rats [6] = format: in vivo, rat
Source text: Female Lewis rats were used to establish CIA model. Methods: The rats were immunized by intradermal injection with the emulsion prepared by bovine C II and IFA at the tail head. After 7 days, the rats were boosted once with the same method. Thereafter, the morphological changes of the four paws of the rats were examined every day. […] Another 8 female Lewis rats were not subjected to model establishment and set as the control group. PBS was administrated to both the model group and the control group. […] The inflammation scores of the four paws of the rats in each group were evaluated during the administration (once every other day), and the area under the curve (AUC) of the inflammation score was calculated during the administration. During drug discontinuation, the inflammation scores of the four paws of the rats in each group were continuously evaluated (once every other day), and the rats were sacrificed on day 22 after drug discontinuation. HE staining was performed on the ankle joint for tissue injury evaluation. The specific scoring criteria were as follows: 0=normal synovial tissue; 1=synovial hyperplasia and inflammatory cell infiltration; 2=pannus formation and cartilage erosion; 3=destruction of most of the cartilage with subchondral bone erosion; 4=loss of joint integrity, ankylosis.

[7] = inflammation score AUC, FNS007 0.2 mmol, adalimumab 1 mg/kg, i.v. once every other day

| Compound | IL-6 levels in the supernatant (PBMC) [ng/mL] | Inflammation score and area under the time curve (AUC) (CIA rats [1]) | Th1 (%) (CIA rats [1]) | Th2 (%) (CIA rats [1]) | Th17 (%) (CIA rats [1]) | Treg (%) (CIA rats [1]) | CD3% [2] | CD4% [2] [%] | CD8% [2] [%] | IFN-γ [2] [pg/mL] | IL-2 [2] [pg/mL] | IL-4 [2] [pg/mL] | TNF-α [2] [pg/mL] | CD3% [3] [%] | CD4% [3] [%] | CD8% [3] [%] | Observation on the daily condition of rats [5] | Tuberculosis recurrence rate [5] [%] | Inflammation score and area under the time curve (AUC) [5] | Culture of MTB from lungs and spleens of rats at sacrifice [5] | further results |
| --- | --- | --- | --- | --- | --- | --- | --- | --- | --- | --- | --- | --- | --- | --- | --- | --- | --- | --- | --- | --- | --- |
| CC[C@H](C)[C@H](N)C(=O)N[C@@H](Cc1c[nH]c2ccccc12)C(=O)N[C@@H](Cc1ccc(O)cc1)C(=O)N[C@H](C(=O)N[C@@H](CO)C(=O)N[C@@H](CS)C(=O)N[C@@H](Cc1ccccc1)C(=O)NCC(=O)N[C@@H](CS)C(=O)N[C@@H](CCC(=O)O)C(=O)N[C@H](C(=O)N[C@@H](Cc1c[nH]cn1)C(=O)N[C@@H](C)C(=O)N[C@@H](CCSC)C(=O)N[C@@H](CC(C)C)C(=O)O)[C@@H](C)O)[C@@H](C)CC [APL9] (H-IWYISCFGCETHAML-OH; N-terminus and C-terminus assumed) | 2.8 | 57.39 ± 39.33 | 0.20 ± 0.05 | 4.27 ± 0.53 | 0.95 ± 0.12 | 5.35 ± 0.84 | 36.08 ± 12.9% | 20.45 ± 8.45 | 17.10 ± 8.82 | 2.35 ± 0.27 | 3.03 ± 1.05 | 1.95 ± 0.95 | 4.79 ± 1.08 | 66.91 ± 11.93 | 28.67 ± 14.78 | 28.67 ± 14.78 | No abnormality | 0 | 54.49 ± 33.12 | Negative | IFN-γ [3]: 5.01 ± 0.69 pg/mL; IL-2 [3]: 4.60 ± 0.55 pg/mL; IL-4 [3]: 2.24 ± 0.12 pg/mL; TNF-α [3]: 2.38 ± 0.24 pg/mL; ALT level [4]: 47.55 ± 18.78 U/L; Hepatitis B activation rate (Ratio of ALT > 100 U/L) [4]: 0%; Observation on the daily condition of mice [4]: No abnormality; Inflammation score and area under the time curve (AUC) [4]: 97.63 ± 50.13 |
| MGPKGRTVIIEQSLGSPKVTK [APL21] | 4.2 | 59.44 ± 38.29 | 0.19 ± 0.08 | 4.23 ± 0.47 | 0.98 ± 0.10 | 5.14 ± 0.90 | 38.16 ± 8.98% | 18.72 ± 5.85 | 19.06 ± 5.4 | 2.64 ± 0.37 | 3.36 ± 1.45 | 2.32 ± 1.37 | 5.25 ± 1.28 | 66.16 ± 4.34 | 23.43 ± 8.46 | 23.43 ± 8.46 | No abnormality | 0 | 53.06 ± 37.25 | Negative | IFN-γ [3]: 5.03 ± 0.22 pg/mL; IL-2 [3]: 4.18 ± 0.41 pg/mL; IL-4 [3]: 1.90 ± 0.15 pg/mL; TNF-α [3]: 2.16 ± 0.14 pg/mL; ALT level [4]: 48.29 ± 21.24 U/L; Hepatitis B activation rate (Ratio of ALT > 100 U/L) [4]: 0%; Observation on the daily condition of mice [4]: No abnormality; Inflammation score and area under the time curve (AUC) [4]: 95.71 ± 51.88 |
| YAKQATLALA [APL7] | 3.7 | 60.48 ± 37.31 | 0.17 ± 0.10 | 4.38 ± 0.81 | 0.92 ± 0.08 | 5.22 ± 0.77 | 36.69 ± 17^ % | 18.29 ± 9.08 | 18.66 ± 8.61 | 2.33 ± 0.29 | 3.06 ± 0.97 | 2.55 ± 1.30 | 5.42 ± 1.23 | 61.83 ± 11.98 | 26.23 ± 7.31 | 23.72 ± 6.35 | No abnormality | 0 | 55.93 ± 29.87 | Negative | IFN-γ [3]: 5.27 ± 0.59 pg/mL; IL-2 [3]: 4.24 ± 0.34 pg/mL; IL-4 [3]: 2.04 ± 0.19 pg/mL; TNF-α [3]: 2.44 ± 0.22 pg/mL; ALT level [4]: 48.53 ± 20.09 U/L; Observation on the daily condition of mice [4]: No abnormality; Inflammation score and area under the time curve (AUC) [4]: 96.19 ± 48.25 |
| adalimumab |  |  |  |  |  |  |  |  |  |  |  |  |  |  |  |  | obvious toxicity symptoms such as piloerection and reduced activity | 60 | 50.42 ± 27.13 | 6/10 Positive | inflammation score during drug discontinuation compared with that at the time of drug discontinuation (CIA rats [6]; 21 days of observation after stopping at day 21): significantly increased; Pathological score during 21 days of drug discontinuation (CIA rats [6]; HE staining of ankle joint, score 0-4): 2.69 ± 0.80; AUC, during drug discontinuation (day 22-42) (CIA rats [6]; inflammation score AUC after stopping administration at day 21): 96.85 ± 26.51; AUC, during administration (day 1-21) (CIA rats [6]; [7]): 54.51 ± 22.72; AUC, the first week during administration (CIA rats [6]; [7]): 13.93 ± 4.81; AUC, during administration (day 1-21) (CIA rats [6]; inflammation score AUC, FNS007 0.2 mmol, adalimumab 1 mg/kg, i.v. once every other day, listed as adalimumab): 54.51; Incidence of infection in rats (CIA rats [6]; rat, in vivo): 10%; Observation on the daily state of rats (CIA rats [6]; rat, in vivo): Piloerection, epistaxis, prostration, reduced activity, etc.; Tuberculosis recurrence rate ([5]; listed as adalimumab): 60%; Inflammation score and area under the time curve (AUC) ([5]; listed as adalimumab): significantly reduce the inflammation score; Culture of MTB from lungs and spleens of rats at sacrifice ([5]; listed as adalimumab): positive in 6/10 rats |
